Experimental data taken from patent publication US7452717B2, “Compositions and methods for sensitizing and inhibiting growth of human tumor cells” (St. Jude Children's Research Hospital, priority 1998, dated 2008).
Several values for one entry are separate records, joined by “and”; a condition that tells them apart may be missing. Equal entries are not always repeated.

Columns and labels:
[1] = tested on: CE activity in human biopsy whole tissue sonicates; assay: Esterase assay (o-NPA conversion) with human biopsy extracts; assay type: biochemical
Procedure: Using human intestinal mucosal biopsy tissue, the conversion of o-NPA to nitrophenol by whole tissue sonicates was monitored. CE activity was identified in both small intestine and colon samples, with activity levels in small intestine being much less than the levels seen with human liver.
Biopsies of human intestine were obtained from the Cooperative Human Tissue Network (Birmingham, Ala.). The samples were ground under liquid nitrogen and the resulting powder sonicated in 50 mM Hepes, pH 7.4, on ice.
(§1) Esterase activity was determined in whole tissue sonicates using a spectrophotometric assay with o-nitrophenol acetate as a substrate (Potter et al. 1998 Cancer Res. 52:2646-2651; Beaufay et al. 1974 J. Cell Biol. 61:188-200). Protein concentrations were calculated using BioRad protein assay reagent (Hercules, Calif.) with bovine serum albumin as a standard. Enzyme activities were calculated as μmoles of o-nitrophenol produced per minute per mg of total protein.

[2] = tested on: COS-7 cells (pCIneo, no enzyme); assay: Esterase assay (o-NPA), COS-7 cells transfected with pCIneo; assay type: biochemical, monkey; conditions: plasmid pCIneo
Procedure: as §1

[3] = target: T1, human intestinal CE (hiCE) (Homo sapiens, UniProt O00748); assay: Esterase assay (o-NPA), COS-7 cells expressing hiCE; assay type: biochemical; conditions: plasmid pCIhiCE, media
T1 construct: expressed in transfected cells; host or cells: COS-7 (sonicates of transiently transfected cells)
T1 sequence (O00748 27-559): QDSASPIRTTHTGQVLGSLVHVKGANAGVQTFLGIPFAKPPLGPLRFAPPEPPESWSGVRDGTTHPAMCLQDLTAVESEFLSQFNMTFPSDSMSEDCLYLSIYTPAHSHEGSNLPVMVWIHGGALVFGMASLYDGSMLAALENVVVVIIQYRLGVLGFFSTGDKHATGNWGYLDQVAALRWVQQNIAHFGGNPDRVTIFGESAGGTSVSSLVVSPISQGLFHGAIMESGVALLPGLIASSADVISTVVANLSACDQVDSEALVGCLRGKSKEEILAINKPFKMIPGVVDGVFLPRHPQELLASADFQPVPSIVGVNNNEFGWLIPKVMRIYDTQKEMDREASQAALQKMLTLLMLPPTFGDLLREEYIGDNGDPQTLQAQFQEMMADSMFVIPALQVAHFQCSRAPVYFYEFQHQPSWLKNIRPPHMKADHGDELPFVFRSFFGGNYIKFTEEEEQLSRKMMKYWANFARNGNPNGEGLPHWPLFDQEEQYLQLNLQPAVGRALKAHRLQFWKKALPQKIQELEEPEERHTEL
Procedure: as §1

human liver CE (hCE1) = target: T2, human liver CE (hCE1) (Homo sapiens, UniProt P23141); assay: Esterase assay (o-NPA), COS-7 cells expressing hCE1; assay type: biochemical; conditions: plasmid pCIHUMCAR, enzyme hCE1
T2 construct: expressed in transfected cells; host or cells: COS-7 (sonicates of transiently transfected cells)
T2 sequence (P23141 18-567): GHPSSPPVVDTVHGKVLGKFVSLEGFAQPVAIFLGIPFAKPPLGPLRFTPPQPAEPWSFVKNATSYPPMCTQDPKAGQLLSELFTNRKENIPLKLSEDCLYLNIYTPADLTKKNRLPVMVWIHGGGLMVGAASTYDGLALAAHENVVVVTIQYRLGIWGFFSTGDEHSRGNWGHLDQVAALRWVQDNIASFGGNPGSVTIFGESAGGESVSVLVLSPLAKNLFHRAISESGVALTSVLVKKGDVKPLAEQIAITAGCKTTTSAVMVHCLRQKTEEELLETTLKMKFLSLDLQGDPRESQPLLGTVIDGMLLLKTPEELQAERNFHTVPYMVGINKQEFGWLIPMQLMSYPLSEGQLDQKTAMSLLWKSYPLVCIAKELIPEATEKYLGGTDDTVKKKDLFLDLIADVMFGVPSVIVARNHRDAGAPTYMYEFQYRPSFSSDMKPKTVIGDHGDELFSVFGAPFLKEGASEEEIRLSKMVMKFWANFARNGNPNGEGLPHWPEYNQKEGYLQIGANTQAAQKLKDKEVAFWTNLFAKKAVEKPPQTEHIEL
Procedure: as §1

rabbit liver CE = target: T3, rabbit liver CE (Oryctolagus cuniculus, UniProt P12337); assay: Esterase assay (o-NPA), COS-7 cells expressing rabbit CE; assay type: biochemical; design: To amplify a full length rabbit CE cDNA, oligonucleotide primers RabNTERM; expressed in transfected cells; host or cells: COS-7 (sonicates of transiently transfected cells); conditions: plasmid pCIRAB, enzyme rabbit
T3 sequence (P12337 19-565): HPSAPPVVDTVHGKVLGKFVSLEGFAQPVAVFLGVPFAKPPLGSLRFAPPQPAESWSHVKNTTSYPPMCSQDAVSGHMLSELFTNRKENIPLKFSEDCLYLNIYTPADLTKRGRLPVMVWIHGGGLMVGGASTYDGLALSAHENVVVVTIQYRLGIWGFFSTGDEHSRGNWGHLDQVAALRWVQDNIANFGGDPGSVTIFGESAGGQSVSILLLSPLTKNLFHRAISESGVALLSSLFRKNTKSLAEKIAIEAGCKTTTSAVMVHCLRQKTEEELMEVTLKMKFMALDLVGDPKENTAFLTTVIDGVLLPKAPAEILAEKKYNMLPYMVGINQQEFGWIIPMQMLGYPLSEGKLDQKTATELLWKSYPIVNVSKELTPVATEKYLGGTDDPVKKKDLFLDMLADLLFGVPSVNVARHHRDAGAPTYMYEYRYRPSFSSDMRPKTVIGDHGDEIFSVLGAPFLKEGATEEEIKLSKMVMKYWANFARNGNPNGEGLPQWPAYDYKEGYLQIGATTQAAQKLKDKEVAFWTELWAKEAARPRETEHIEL
Procedure: as §1

CC(=O)Oc1ccccc1[N+](=O)[O-] [o-NPA, o-nitrophenyl acetate]
o-NPA Conversion ([1]; human colon biopsy extract): 46.5 ± 1.2 µmol/min/mg and 86.3 ± 5.2 µmol/min/mg and 75.9 ± 2.6 µmol/min/mg | o-NPA Conversion ([1]; human small intestine biopsy extract): 113.0 ± 9.2 µmol/min/mg and 67.6 ± 4.1 µmol/min/mg and 61.0 ± 2.0 µmol/min/mg | o-NPA Conversion ([2]; enzyme none): 6.7 ± 0.15 µmol/min/mg | o-NPA Conversion ([2]; media): 13.3 ± 2.7 µmol/min/mg | o-NPA Conversion [3]: 30.9 ± 2.8 µmol/min/mg | o-NPA Conversion (human liver CE (hCE1)): 4780.3 ± 279.8 µmol/min/mg | o-NPA Conversion (rabbit liver CE): 2755.5 ± 271.2 µmol/min/mg
